This test concerns Erythrocyte beta receptor. Kind of test: Free energy of binding to turkey erythrocyte beta receptor. Set-up: unit not given here. The note with it: Meleagris gallopavo.
As for `O[C@@H](CNc1ccccc1)c1ccccc1`, the Delta G is -5.76.
The figure for `CC(C)NC[C@@H](O)COc1cccc2ccccc12` is -11.7; for `CC(C)NC[C@H](O)c1ccc(NS(C)(=O)=O)c(O)c1` it is -6.29; for `NC[C@H](O)COc1cccc2ccccc12` it is -10.9.
As for `CN[C@@H](C)[C@H](O)c1ccc(O)cc1`, the Delta G was -6.47.
The figure for `C=CCOc1ccccc1OC[C@@H](O)CNC(C)C` is -11.6; for `CC(C)NC[C@H](O)COc1ccc(O)c(O)c1` it is -9.13.
The figure for `CC(C)(C)NC[C@H](O)c1ccc(O)c(CO)c1` is -8.23.
The figure for `CC(C)NC[C@H](O)c1ccc(NS(C)(=O)=O)cc1` is -8.46.
As to `CC(C)NC[C@H](O)c1cc(O)cc(O)c1`, the Delta G is -7.13.
With `CC(C)(C)NC[C@H](O)COc1cccc2[nH]ccc12`, the Delta G is -13.5.
The result for `CC(C)NC[C@H](O)COc1ccccc1I` reads -12.8; that for `C=CCc1ccccc1OC[C@@H](O)CNC(C)C`, -12.1.
The figure for `C[C@H](NCCc1ccccc1)[C@H](O)c1ccc(O)cc1` is -9.01; for `CS(=O)(=O)Nc1cc([C@@H](O)CNC2CC2)ccc1O` it is -8.19; for `CC(C)NC[C@H](O)c1ccc(O)c2ncccc12` it is -10.4.
The figure for `CC(C)(Cc1ccc(O)cc1)NC[C@H](O)COc1cccc2[nH]ccc12` is -14.7.
`CC(C)NC[C@H](O)COc1ccc(O)cc1`: the Delta G was -8.91.
The figure for `CC(C)NC[C@H](O)c1ccc2ccccc2c1` is -9.06; for `CC(C)NCC(O)c1ccc(O)c(O)c1` (configuration not stated) it is -9.18; for `CC(C)NC[C@H](O)COc1cccc2c(O)cccc12` it is -11.2.
Regarding `CC(C)(Cc1ccccc1)NC[C@H](O)c1ccc(O)c(NS(C)(=O)=O)c1`, the Delta G was -9.64.
The figure for `CC(C)NC[C@H](O)COc1cccc2[nH]ccc12` is -13.
The figure for `CC(=O)Nc1ccc(OC[C@@H](O)CNC(C)C)cc1` is -7.54.
The result for `CC[C@H](NC(C)C)[C@H](O)c1ccc(O)c(O)c1` reads -8.02; that for `CNC[C@H](O)c1cccc(O)c1`, -6.72.
For the compound `CC(C)(C)NC[C@H](O)c1cc(O)cc(CO)c1`, the Delta G is -6.58.
Turning to `CC(Cc1ccc2c(c1)OCO2)NC[C@H](O)c1ccc(O)c(O)c1` (some centres not stated), the Delta G was -9.88.
The figure for `COc1ccc(CCNC[C@H](O)COC2=CC=CC3C(=O)C=CC=C23)cc1OC` (some centres not stated) is -11.3.
The figure for `CC(C)NC[C@H](O)c1ccc(O)c(NS(C)(=O)=O)c1` is -7.36; for `C[C@H](COc1ccccc1)NC[C@H](O)c1ccc(O)cc1` it is -7.95.
The result for `NC[C@H](O)c1ccc(O)c(O)c1` reads -7.26.
With `CC(C)NC[C@H](O)c1ccc(O)cc1`, the Delta G is -7.54.
The figure for `C=CCc1cccc(OC[C@@H](O)CNC(C)C)c1` is -8.82; for `C[C@H](N)[C@H](O)c1ccc(O)c(O)c1` it is -9.64; for `CC(C)NC[C@H](O)COc1ccc(N)cc1` it is -8.96.
For the compound `CC(C)NC[C@H](O)c1cccc(O)c1`, the Delta G was -7.99.
The figure for `CC[C@H](NC(C)C)[C@H](O)c1ccc(NS(C)(=O)=O)cc1` is -7.41; for `CNC[C@H](O)c1ccccc1` it is -6.79; for `CCNC[C@H](O)c1cccc(O)c1` it is -6.75.
The result for `CNC[C@H](O)c1ccc(O)cc1` reads -6.01; that for `CC(C)(Cc1ccc(O)cc1)NC[C@H](O)COc1cccc2ccccc12`, -11.2; that for `C[C@H](N)[C@H](O)c1ccc(O)cc1`, -6.27.
In the case of `CC(C)(C)NC[C@H](O)COC1=CC=CC2C(=O)C=CC=C12` (some centres not stated), the Delta G was -11.9.
`CC(C)(Cc1ccc(O)cc1)NC[C@H](O)c1ccc(O)c(O)c1`: the Delta G was -10.
Turning to `CCNC[C@H](O)c1ccc(O)c(O)c1`, the Delta G is -7.59.
The result for `CC(CCc1ccccc1)N[C@@H](C)[C@H](O)c1ccc(O)cc1` (some centres not stated) reads -9.55; that for `Oc1ccc(CCNC[C@H](O)COc2cccc3ccccc23)cc1`, -10.9.
In the case of `NC[C@H](O)c1cccc(O)c1`, the Delta G is -7.23.
The figure for `CNC[C@H](O)c1ccc(O)c(O)c1` is -7.86; for `COc1ccc(CC(C)NC[C@H](O)c2ccc(O)c(CO)c2)cc1` (some centres not stated) it is -7.65.
The result for `NC[C@H](O)c1ccc(O)cc1` reads -5.94; that for `CC(Cc1ccc(O)cc1)NC[C@H](O)c1ccc(O)c(O)c1` (some centres not stated), -10.4.
The result for `CC(Cc1ccc(O)cc1)NC[C@H](O)c1cc(O)cc(O)c1` (some centres not stated) reads -8.62; that for `CC(C)(Cc1ccc(O)cc1)NC[C@H](O)c1cc(O)cc(CO)c1`, -7.61; that for `CC(C)NC[C@H](O)c1ccc(Cl)c(Cl)c1`, -8.83.
As for `CC(C)NC[C@H](O)c1ccc(O)c(CS(C)(=O)=O)c1`, the Delta G is -7.85.

Values taken from ChEMBL document CHEMBL1123401, “Mapping the turkey erythrocyte beta receptor: a distance geometry approach” (J Med Chem, 1986).
